In paper PMC10965220 (Bioorganic chemistry, 2022):

Legend:
human COX-1 = biological target: T1, human COX-1 (Ovis aries, UniProt P05979); assay: In vitro COX-1 inhibition assay
T1 sequence (P05979 25-600): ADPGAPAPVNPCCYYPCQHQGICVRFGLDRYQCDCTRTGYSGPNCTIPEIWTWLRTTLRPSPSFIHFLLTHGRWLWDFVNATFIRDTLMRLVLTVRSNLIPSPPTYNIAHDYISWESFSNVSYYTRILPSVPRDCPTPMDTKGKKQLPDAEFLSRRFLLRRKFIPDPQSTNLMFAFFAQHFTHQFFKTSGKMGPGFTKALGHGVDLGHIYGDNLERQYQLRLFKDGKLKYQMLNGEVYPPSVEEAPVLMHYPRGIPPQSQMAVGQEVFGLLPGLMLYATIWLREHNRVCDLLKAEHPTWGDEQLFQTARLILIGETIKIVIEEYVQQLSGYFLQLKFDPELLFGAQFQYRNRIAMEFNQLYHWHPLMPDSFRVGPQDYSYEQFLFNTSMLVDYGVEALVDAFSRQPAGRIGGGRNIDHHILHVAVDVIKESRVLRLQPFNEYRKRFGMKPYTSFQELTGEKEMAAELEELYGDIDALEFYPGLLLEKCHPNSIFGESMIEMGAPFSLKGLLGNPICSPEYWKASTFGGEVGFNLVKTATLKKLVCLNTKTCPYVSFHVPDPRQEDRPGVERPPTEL

human COX-2 = biological target: T2, human COX-2 (Homo sapiens, UniProt P35354); assay: In vitro COX-2 inhibition assay; conditions: for COX-2 SI: Selectivity index = COX-1 IC50/COX-2 IC50
T2 sequence (P35354 18-604): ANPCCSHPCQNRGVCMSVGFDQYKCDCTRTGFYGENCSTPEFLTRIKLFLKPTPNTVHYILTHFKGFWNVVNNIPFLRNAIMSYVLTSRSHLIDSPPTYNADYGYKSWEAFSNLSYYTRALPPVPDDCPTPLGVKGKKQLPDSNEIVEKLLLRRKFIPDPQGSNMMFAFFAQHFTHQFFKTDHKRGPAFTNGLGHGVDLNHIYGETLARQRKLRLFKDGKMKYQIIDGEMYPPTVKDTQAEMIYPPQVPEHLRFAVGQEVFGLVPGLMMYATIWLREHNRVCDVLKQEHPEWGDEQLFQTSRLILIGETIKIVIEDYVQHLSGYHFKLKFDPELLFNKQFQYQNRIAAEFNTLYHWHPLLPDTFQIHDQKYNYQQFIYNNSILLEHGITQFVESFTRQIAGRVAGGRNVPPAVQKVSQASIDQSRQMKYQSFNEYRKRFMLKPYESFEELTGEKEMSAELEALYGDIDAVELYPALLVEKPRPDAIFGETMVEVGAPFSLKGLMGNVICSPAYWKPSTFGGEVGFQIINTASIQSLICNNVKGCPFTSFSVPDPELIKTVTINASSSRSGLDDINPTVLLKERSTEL

[1] = test system: LPS-induced NO production in RAW 264.7 cells; assay: NO production in LPS-activated RAW 264.7 macrophages; format: cell-based, murine; conditions: vs reference celecoxib
[2] = test system: LPS-induced ROS production in RAW 264.7 cells; assay: ROS production in LPS-activated RAW 264.7 macrophages; format: cell-based, murine; conditions: vs reference celecoxib

Cc1ccc(NC(=O)CSc2nnc(-c3ccc(NC(=O)c4cccnc4)cc3)o2)cc1 [Compound 8c, N-(4-(5-((2-((4-Methylphenyl)amino)-2-oxoethyl)thio)-1,3,4-oxadiazol-2-yl)phenyl)nicotinamide]
IC50 (human COX-1): 11.5 ± 0.85 µM
IC50 (human COX-2): 50 ± 10 nM
COX-2 SI (human COX-2): 230

O=C(CSc1nnc(-c2ccc(NC(=O)c3cccnc3)cc2)o1)Nc1cccc(Br)c1 [Compound 8f, N-(4-(5-((2-((3-Bromophenyl)amino)-2-oxoethyl)thio)-1,3,4-oxadiazol-2-yl)phenyl)nicotinamide]
IC50 (human COX-1): 10 ± 3.17 µM
IC50 (human COX-2): 80 ± 10 nM
COX-2 SI (human COX-2): 125

CC(=O)c1ccc(NC(=O)CSc2nnc(-c3ccc(NC(=O)c4cccnc4)cc3)o2)cc1 [Compound 8a, N-(4-(5-((2-((4-Acetylphenyl)amino)-2-oxoethyl)thio)-1,3,4-oxadiazol-2-yl)phenyl)nicotinamide]
IC50 (human COX-1): 11.5 ± 1.01 µM
IC50 (human COX-2): 50 ± 10 nM
COX-2 SI (human COX-2): 230

Cc1ccc(NC(=O)CSc2nnc(-c3ccc(NC(=O)c4cccnc4)cc3)n2N)cc1 [Compound 11c, N-(4-(4-Amino-5-((2-((4-methylphenyl)amino)-2-oxoethyl)thio)-4H-1,2,4-triazol-3-yl)phenyl) nicotinamide]
IC50 (human COX-1): 13.5 ± 1.63 µM
IC50 (human COX-2): 40 ± 10 nM
COX-2 SI (human COX-2): 337.5

Cc1ccc(C)c(NC(=O)CSc2nnc(-c3ccc(NC(=O)c4cccnc4)cc3)o2)c1 [Compound 8d, N-(4-(5-((2-((2,5-Dimethylphenyl)amino)-2-oxoethyl)thio)-1,3,4-oxadiazol-2-yl)phenyl) nicotinamide]
IC50 (human COX-1): 10.5 ± 2.98 µM
IC50 (human COX-2): 160 ± 40 nM
COX-2 SI (human COX-2): 65.63

Cc1ccc(C)c(NC(=O)CSc2nnc(-c3ccc(NC(=O)c4cccnc4)cc3)n2N)c1 [Compound 11d, N-(4-(4-Amino-5-((2-((2,5-dimethylphenyl)amino)-2-oxoethyl)thio)-4H-1,2,4-triazol-3-yl)phenyl) nicotinamide]
IC50 (human COX-1): 10.5 ± 3.03 µM
IC50 (human COX-2): 80 ± 10 nM
COX-2 SI (human COX-2): 131.25

Cc1ccc(C=Nn2c(-c3ccc(NC(=O)c4cccnc4)cc3)n[nH]c2=S)cc1 [Compound 10a, N-(4-(4-((4-Methylbenzylidene)amino)-5-thioxo-4,5-dihydro-1H-1,2,4-triazol-3-yl)phenyl) nicotinamide]
IC50 (human COX-1): 11.5 ± 0.98 µM
IC50 (human COX-2): 110 ± 20 nM
COX-2 SI (human COX-2): 104.55

Nn1c(SCC(=O)Nc2ccc(F)cc2)nnc1-c1ccc(NC(=O)c2cccnc2)cc1 [Compound 11e, N-(4-(4-Amino-5-((2-((4-fluorophenyl)amino)-2-oxoethyl)thio)-4H-1,2,4-triazol-3-yl)phenyl) nicotinamide]
IC50 (human COX-1): 10 ± 2.34 µM
IC50 (human COX-2): 60 ± 10 nM
COX-2 SI (human COX-2): 166.67

O=C(CSc1nnc(-c2ccc(NC(=O)c3cccnc3)cc2)o1)Nc1ccc(F)cc1 [Compound 8e, N-(4-(5-((2-((4-Fluorophenyl)amino)-2-oxoethyl)thio)-1,3,4-oxadiazol-2-yl)phenyl)nicotinamide]
IC50 (human COX-1): 7.5 ± 0.75 µM
IC50 (human COX-2): 110 ± 10 nM
COX-2 SI (human COX-2): 68.18

O=C(Nc1ccc(-c2n[nH]c(=S)n2N=Cc2c[nH]c3ccccc23)cc1)c1cccnc1 [Compound 10b, N-(4-(4-(((1H-Indol-3-yl)methylene)amino)-5-thioxo-4,5-dihydro-1H-1,2,4-triazol-3-yl)phenyl) nicotinamide]
IC50 (human COX-1): 8 ± 0.14 µM
IC50 (human COX-2): 110 ± 10 nM
COX-2 SI (human COX-2): 72.73

CC(=O)c1ccc(NC(=O)CSc2nnc(-c3ccc(NC(=O)c4cccnc4)cc3)n2N)cc1 [Compound 11a, N-(4-(5-((2-((4-Acetylphenyl)amino)-2-oxoethyl)thio)-4-amino-4H-1,2,4-triazol-3-yl)phenyl) nicotinamide]
IC50 (human COX-1): 8.5 ± 0.62 µM
IC50 (human COX-2): 110 ± 10 nM
COX-2 SI (human COX-2): 77.27

Nn1c(SCC(=O)Nc2ccccc2Cl)nnc1-c1ccc(NC(=O)c2cccnc2)cc1 [Compound 11g, N-(4-(4-Amino-5-((2-((2-chlorophenyl)amino)-2-oxoethyl)thio)-4H-1,2,4-triazol-3-yl)phenyl) nicotinamide]
IC50 (human COX-1): 10.5 ± 2.25 µM
IC50 (human COX-2): 80 ± 10 nM
COX-2 SI (human COX-2): 131.25

Nn1c(SCC(=O)Nc2cccc(Br)c2)nnc1-c1ccc(NC(=O)c2cccnc2)cc1 [Compound 11f, N-(4-(4-Amino-5-((2-((3-bromophenyl)amino)-2-oxoethyl)thio)-4H-1,2,4-triazol-3-yl)phenyl) nicotinamide]
IC50 (human COX-1): 9.5 ± 0.99 µM
IC50 (human COX-2): 90 ± 10 nM
COX-2 SI (human COX-2): 105.56

O=C(CSc1nnc(-c2ccc(NC(=O)c3cccnc3)cc2)o1)Nc1ccc([N+](=O)[O-])cc1 [Compound 8b, N-(4-(5-((2-((4-Nitrophenyl)amino)-2-oxoethyl)thio)-1,3,4-oxadiazol-2-yl)phenyl)nicotinamide]
fold better NO IC50 than celecoxib [1]: more than 41 fold
fold lower ROS IC50 than celecoxib [2]: about 476 fold
IC50 (human COX-1): 8.5 ± 0.6 µM
IC50 (human COX-2): 140 ± 10 nM
COX-2 SI (human COX-2): 60.71

O=C(CSc1nnc(-c2ccc(NC(=O)c3cccnc3)cc2)o1)Nc1ccccc1Cl [Compound 8g, N-(4-(5-((2-((2-Chlorophenyl)amino)-2-oxoethyl)thio)-1,3,4-oxadiazol-2-yl)phenyl)nicotinamide]
IC50 (human COX-1): 8.5 ± 0.71 µM
IC50 (human COX-2): 50 ± 10 nM
COX-2 SI (human COX-2): 170

Nn1c(SCC(=O)Nc2ccc([N+](=O)[O-])cc2)nnc1-c1ccc(NC(=O)c2cccnc2)cc1 [Compound 11b, N-(4-(4-Amino-5-((2-((4-nitrophenyl)amino)-2-oxoethyl)thio)-4H-1,2,4-triazol-3-yl)phenyl) nicotinamide]
IC50 (human COX-1): 11.5 ± 1.41 µM
IC50 (human COX-2): 80 ± 10 nM
COX-2 SI (human COX-2): 143.75
